Results reported in patent US20220288051A1, “METHODS FOR TREATING CANCER USING SERIAL ADMINISTRATION OF E3 UBIQUITIN LIGASE DEGRADERS” (Dana-Farber Cancer Institute, Inc., priority 2019, published 2022).

Key:
MDR1 transporter = MDR1 transporter (Homo sapiens, UniProt P08183); conditions: stated as fact; cited from earlier work
pools of MM cells = experiment: Sequential exposure to CRBN- and VHL-based degraders, CTG; format: cell-based, human; conditions: compared to treatment-naïve cells
Text: We addressed this question using pools of MM cells derived from several of our genome-scale CRISPR-based screens.

MM.1S-dCas9-VP64 cells = experiment: Genome-scale CRISPR gene activation resistance screens; format: cell-based, human; conditions: Calabrese library; successive rounds of treatment
Method: We also performed genome-scale CRISPR-based gene-activation screens, which followed the “long-term” configuration of the gene editing studies.
For the genome-scale screen with the Calabrese sgRNA library, tumor cells were transduced in batches of 3×10^7 cells per sublibrary for triplicates. Cells were incubated (18 h) in cell medium containing polybrene (4 μg/mL; Santa Cruz Biotechnology), 10 mM HEPES (pH 7.4) (Sigma-Aldrich) and viral prep (30 mL) diluted 1:1. Transduced cells were cultured at an initial density of 1×10^6 cells/mL and were treated with puromycin (1 μg/mL) for up to 7 days additional two days from transduction. After stable transduction, pooled MM.1S cells were plated at 30×10^6 cells per flask (T175, 100 mL) to enable coverage of 500× and were sub-cultured at three- to four-day intervals to prevent confluence. […]
Cells were immediately harvested (30×10^6) and sgRNA distribution assessed, by next generation sequencing.
iv. […] DNA concentration was quantified by UV-spectroscopy (NanoDrop 8000; ThermoFisher Scientific). […] Multiplexed samples were then sequenced at the Molecular Biology Core Facility (Dana-Farber Cancer Institute) and/or The Genomics Platform (Broad Institute) using an Illumina NextSeq 500 (Illumina, San Diego, Calif.), allowing […] individual reads per multiplexed sample.

MM.1S cells [1] = experiment: Reverse phase protein array (RPPA) of treated MM.1S cells; format: cell-based, human
Method: MM.1S cells were seeded in 6-well plates (2×10^6/well) and cultured overnight prior to treatment. […] Lysates of these protein samples were processed by the Functional Proteomics RPPA Core Facility of the MD Anderson Cancer Center (Houston, Tex.), based on protocols and procedures outlined in the website of the facility (mdanderson.org/research/research-resources/core-facilities/functional-proteomicsrppa-core/rppa-process.html) and similarly to prior reports (Li et al., 2017). We mapped protein antibody labels to gene symbols available from Antibody Information and Protocols at MDACC (mdanderson.org/content/dam/mdanderson/documents/corefacilities/Functional%20Proteomics %20RPPA%20Core%20Facility/RPPA_Standard%20Ab%20List_Updated.xlsx). For data preprocessing, results from replicates of the same experimental run were averaged for each protein. The resulting matrix of RPPA data was further processed to generate log-transformed linear normalized data, linear normalized, and normalized median centered data. The differential protein expression analysis for dBET6- or JQ1-treated samples vs. controls were performed using the limma moderated t-statistic (Ritchie et al., 2015).

MM.1S cells [2] = experiment: RNA-sequencing of treated MM.1S cells; format: cell-based, human
MM.1S-Cas9+ cells = experiment: Genome-scale CRISPR/Cas9 gene editing (LOF) resistance screens; format: cell-based, human; conditions: 25 nM for 48 hrs; Brunello library
human MM.1S cells = experiment: Xenograft model of diffuse MM lesions; format: in vivo, NSG mice; conditions: 20 mg/kg, QD, 12 days
Method: ii. Xenograft model of diffuse MM lesions: Luciferase-positive MM.1S cells (1×106 Luc-GFP-MM.1S) were injected via the tail vein (IV) into NSG mice. […] BLI was undertaken weekly and mice were euthanized when moribund or upon signs of hind-limb paralysis.

[3] = dBET6 vs JQ1-treated MM.1S cells

Sequence of MDR1 transporter (P08183 whole entry): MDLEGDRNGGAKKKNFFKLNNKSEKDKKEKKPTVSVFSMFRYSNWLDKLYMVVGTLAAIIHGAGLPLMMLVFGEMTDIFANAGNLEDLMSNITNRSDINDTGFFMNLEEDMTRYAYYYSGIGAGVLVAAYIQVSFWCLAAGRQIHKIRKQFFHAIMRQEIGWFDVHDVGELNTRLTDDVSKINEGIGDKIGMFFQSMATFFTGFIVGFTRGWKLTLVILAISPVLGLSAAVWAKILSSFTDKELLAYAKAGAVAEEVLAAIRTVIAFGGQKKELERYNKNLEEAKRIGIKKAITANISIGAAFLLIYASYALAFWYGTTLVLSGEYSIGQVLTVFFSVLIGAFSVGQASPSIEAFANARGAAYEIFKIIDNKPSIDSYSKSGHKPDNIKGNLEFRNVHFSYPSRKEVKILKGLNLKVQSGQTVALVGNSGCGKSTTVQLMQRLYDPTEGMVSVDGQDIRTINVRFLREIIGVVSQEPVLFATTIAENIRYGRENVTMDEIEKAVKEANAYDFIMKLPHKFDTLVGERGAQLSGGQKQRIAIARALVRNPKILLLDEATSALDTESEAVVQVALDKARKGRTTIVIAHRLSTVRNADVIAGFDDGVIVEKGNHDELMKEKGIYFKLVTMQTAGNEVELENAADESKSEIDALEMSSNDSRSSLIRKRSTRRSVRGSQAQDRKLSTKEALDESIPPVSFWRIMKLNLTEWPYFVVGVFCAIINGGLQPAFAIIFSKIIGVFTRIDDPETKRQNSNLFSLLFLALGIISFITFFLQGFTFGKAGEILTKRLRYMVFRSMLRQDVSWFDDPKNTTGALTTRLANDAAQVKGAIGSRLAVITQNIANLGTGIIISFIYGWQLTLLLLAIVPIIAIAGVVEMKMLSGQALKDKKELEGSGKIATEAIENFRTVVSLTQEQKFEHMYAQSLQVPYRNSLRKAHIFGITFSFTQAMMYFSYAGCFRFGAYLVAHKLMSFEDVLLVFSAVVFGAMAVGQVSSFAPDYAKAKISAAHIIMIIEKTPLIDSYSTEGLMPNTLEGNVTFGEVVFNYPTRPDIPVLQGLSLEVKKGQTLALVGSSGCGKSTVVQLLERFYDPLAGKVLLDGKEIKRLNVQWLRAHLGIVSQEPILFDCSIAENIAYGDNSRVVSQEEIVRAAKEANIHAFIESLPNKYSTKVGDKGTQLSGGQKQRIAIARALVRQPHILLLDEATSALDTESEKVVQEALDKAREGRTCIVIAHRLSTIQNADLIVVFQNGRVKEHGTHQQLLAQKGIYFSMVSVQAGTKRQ

| SMILES | MDR1 substrate (MDR1 transporter) | response of pools previously exposed to ARV771 and then MZ1 (pools of MM cells) | shift of dose response curve in pools previously exposed to CRBN-based degraders (pools of MM cells) | sgRNA enrichment, gene activation screen (MM.1S-dCas9-VP64 cells) | protein changes at 4 hrs (MM.1S cells [1]; MM.1S, dBET6 0.1 μM, JQ1 0.5 μM, 4 hrs) | RPPA expression of pro-survival and pro-apoptotic proteins (MM.1S cells [1]; MM.1S, dBET6 0.1 μM, 4 h and 18 h) | protein changes at later time-points (MM.1S cells [1]; MM.1S, dBET6 0.1 μM, later time-points) | suppression of c-MYC at protein level (MM.1S cells [1]; [3]) | transcriptional profile (RNA-Seq), down-regulated transcripts (MM.1S cells [2]; dBET6 0.1 or 0.5 μM vs JQ1 0.5 μM, 4 h) | suppression of c-MYC at transcript level (MM.1S cells [2]; [3]) | sgRNA enrichment, short-term screen (MM.1S-Cas9+ cells) | overall survival (human MM.1S cells) | tumor burden measured by BLI vs vehicle (human MM.1S cells) |
| --- | --- | --- | --- | --- | --- | --- | --- | --- | --- | --- | --- | --- | --- |
| Cc1ncsc1-c1ccc([C@H](C)NC(=O)[C@@H]2C[C@@H](O)CN2C(=O)[C@@H](NC(=O)COCCCOCCNC(=O)C[C@@H]2N=C(c3ccc(Cl)cc3)c3c(sc(C)c3C)-n3c(C)nnc32)C(C)(C)C)cc1 [ARV-771] | MDR1 substrates | significantly decreased responsiveness | limited, if any, shift | ABCB1, the gene for the MDR1 transporter, was commonly identified as the only gene with sgRNA enrichment | – | – | – | – | – | – | – | – | – |
| Cc1sc2c(c1C)C(c1ccc(Cl)cc1)=N[C@@H](CC(=O)NCCCCCCCCNC(=O)COc1cccc3c1C(=O)N(C1CCC(=O)NC1=O)C3=O)c1nnc(C)n1-2 (some centres unmarked) [dBET6] | MDR1 substrates | – | – | ABCB1, the gene for the MDR1 transporter, was commonly identified as the only gene with sgRNA enrichment | causes downregulation of Mcl-1, Cyclin B1 (not shown), and BRD4 | reduce the expression of key pro-survival proteins, such as MCL-1, c-MYC, and pS6, while leading to the upregulation of cell cycle inhibitor, p21, and cleavage of executioner caspases 3 and 7 | suppression of Ser240/Ser244 S6 phosphorylation; induction of p21, and increase in cleaved caspase3/7 | more pronounced suppression of c-MYC | down-regulation of a larger group of transcripts | more pronounced suppression of c-MYC | CRBN is the top gene in terms of sgRNA enrichment | only minimal overall survival advantage | significantly lower tumor burden |
| CC(C)(C)c1cnc(CSc2cnc(NC(=O)C3CCN(CC(=O)NCCOCCOCCOCCNc4cccc5c4C(=O)N(C4CCC(=O)NC4=O)C5=O)CC3)s2)o1 (centres unmarked) [Thal-SNS-032] | – | – | major shifts to the right | – | – | – | – | – | – | – | CRBN is the top gene in terms of sgRNA enrichment | – | – |
